Measurements published in ChEMBL document CHEMBL5725985, “Substituted pyridines as sodium channel blockers” (2017).

Biological target: Sodium channel protein type 9 subunit alpha (Homo sapiens, UniProt Q15858)
Assay: FLIPR Assay: In vitro assays were performed in a recombinant cell line expressing cDNA encoding the alpha subunit (Nav1.7, SCN9a, PN1, NE) of human Nav1.7 (Accession No. NM_002977). The cell line was provided by investigators at Yale University (Cummins et al, J. Neurosci. 18(23): 9607-9619 (1998)). For dominant selection of the Nav1.7-expressing clones, the expression plasmid co-expressed the neomycin resistance gene. The cell line was constructed in the human embryonic kidney cell line, HEK293, under the influence of the CMV […] promoter, and stable clones were selected using limiting dilution cloning and antibiotic selection using the neomycin analogue, G418. Recombinant beta and gamma subunits were not introduced into this cell line. Additional cell lines expressing recombinant Nav1.7 cloned from other species can also be used, alone or in combination with various beta subunits, gamma subunits or chaperones.

Sodium channel protein type 9 subunit alpha, sequence (Q15858 whole entry): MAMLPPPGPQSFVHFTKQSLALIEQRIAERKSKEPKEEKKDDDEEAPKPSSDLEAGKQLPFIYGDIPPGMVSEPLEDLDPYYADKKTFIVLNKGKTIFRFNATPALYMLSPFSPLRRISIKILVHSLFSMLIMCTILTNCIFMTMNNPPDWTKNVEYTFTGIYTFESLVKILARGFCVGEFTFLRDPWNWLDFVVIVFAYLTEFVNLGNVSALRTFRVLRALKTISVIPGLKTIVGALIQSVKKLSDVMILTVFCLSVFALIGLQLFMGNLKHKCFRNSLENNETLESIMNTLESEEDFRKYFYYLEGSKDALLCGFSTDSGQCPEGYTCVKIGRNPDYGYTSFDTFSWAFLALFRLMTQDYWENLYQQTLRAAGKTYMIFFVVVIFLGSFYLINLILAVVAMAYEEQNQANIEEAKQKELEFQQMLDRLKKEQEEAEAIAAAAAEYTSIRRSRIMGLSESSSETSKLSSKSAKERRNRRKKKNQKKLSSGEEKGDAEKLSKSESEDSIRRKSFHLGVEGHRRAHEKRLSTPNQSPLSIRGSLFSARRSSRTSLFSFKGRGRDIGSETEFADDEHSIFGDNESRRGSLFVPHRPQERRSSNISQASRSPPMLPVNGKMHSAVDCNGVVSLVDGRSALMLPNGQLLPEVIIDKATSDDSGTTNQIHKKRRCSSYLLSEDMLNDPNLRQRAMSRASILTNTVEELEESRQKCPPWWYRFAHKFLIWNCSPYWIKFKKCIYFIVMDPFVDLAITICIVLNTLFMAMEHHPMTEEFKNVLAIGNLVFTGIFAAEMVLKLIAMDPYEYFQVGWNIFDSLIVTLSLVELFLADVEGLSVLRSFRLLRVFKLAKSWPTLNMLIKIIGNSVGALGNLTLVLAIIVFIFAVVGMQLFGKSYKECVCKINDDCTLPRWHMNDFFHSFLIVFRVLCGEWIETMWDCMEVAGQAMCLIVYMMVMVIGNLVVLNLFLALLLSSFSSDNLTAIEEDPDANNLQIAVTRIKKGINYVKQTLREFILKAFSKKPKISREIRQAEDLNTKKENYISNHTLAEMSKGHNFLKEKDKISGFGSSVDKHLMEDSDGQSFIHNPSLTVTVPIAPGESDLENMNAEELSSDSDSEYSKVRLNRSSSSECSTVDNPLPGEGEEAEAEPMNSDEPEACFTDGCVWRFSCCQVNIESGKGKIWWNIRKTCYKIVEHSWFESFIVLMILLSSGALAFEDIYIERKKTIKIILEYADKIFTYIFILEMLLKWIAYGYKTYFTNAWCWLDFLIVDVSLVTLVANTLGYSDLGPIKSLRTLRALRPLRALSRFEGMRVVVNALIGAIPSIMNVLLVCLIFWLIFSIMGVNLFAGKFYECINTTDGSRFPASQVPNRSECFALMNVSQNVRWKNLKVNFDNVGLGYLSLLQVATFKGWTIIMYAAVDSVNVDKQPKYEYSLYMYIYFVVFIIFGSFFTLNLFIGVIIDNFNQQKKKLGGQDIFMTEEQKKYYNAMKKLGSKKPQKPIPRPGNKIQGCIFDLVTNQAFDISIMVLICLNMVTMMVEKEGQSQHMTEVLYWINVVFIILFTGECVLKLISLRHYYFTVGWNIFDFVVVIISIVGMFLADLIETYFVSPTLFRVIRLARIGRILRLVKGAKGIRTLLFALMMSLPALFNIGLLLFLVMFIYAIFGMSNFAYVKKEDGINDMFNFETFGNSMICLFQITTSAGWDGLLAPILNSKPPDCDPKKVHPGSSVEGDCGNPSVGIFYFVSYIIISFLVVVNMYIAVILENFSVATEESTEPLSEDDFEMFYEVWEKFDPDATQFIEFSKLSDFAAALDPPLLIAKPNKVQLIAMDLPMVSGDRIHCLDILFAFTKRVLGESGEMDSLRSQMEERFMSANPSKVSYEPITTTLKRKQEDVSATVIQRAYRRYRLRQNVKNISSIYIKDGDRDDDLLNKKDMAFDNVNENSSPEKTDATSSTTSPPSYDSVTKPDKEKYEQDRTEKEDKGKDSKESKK

Structure (SMILES): CC(C)C[C@H](NC(=O)C1CC1)C(=O)Nc1cccc(-c2ccc(Oc3ccc(F)cc3)cc2)n1
- IC50: 36 nM
